This is an account of results in patent US12059422B2 (MEI Pharma, Inc., priority 2011, dated 2024).

The target of assay [1] is T1, PI3K alpha (Homo sapiens, UniProt P42336).
T1 construct: purchased Invitrogen Corp., Carlsbad, CA, USA
In words: Luciferase-based luminescence assay (KinaseGlo), PI3K alpha enzymatic activity. Format: biochemical. The following applies: inhibition of enzymatic activity, 25 μM ATP, read-out: IC50 p110α. The procedure, abridged:
(§1)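 KinaseGlo luminescence measured ATP remaining after PIP2 (50 μM) phosphorylation with 25 μM ATP in HEPES pH 7.5 buffer with CHAPS and DTT. Final enzyme was 1.65 nM alpha (1 h reaction) or 6.86 nM delta (2 h reaction). IC50 was curve-fitted from 10 concentrations.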

In assay [2] the target is T2, PI3K delta (Homo sapiens, UniProt O00329).
T2 construct: purchased Millipore, Billerica, MA, USA
T2 sequence (O00329 whole entry, species assumed): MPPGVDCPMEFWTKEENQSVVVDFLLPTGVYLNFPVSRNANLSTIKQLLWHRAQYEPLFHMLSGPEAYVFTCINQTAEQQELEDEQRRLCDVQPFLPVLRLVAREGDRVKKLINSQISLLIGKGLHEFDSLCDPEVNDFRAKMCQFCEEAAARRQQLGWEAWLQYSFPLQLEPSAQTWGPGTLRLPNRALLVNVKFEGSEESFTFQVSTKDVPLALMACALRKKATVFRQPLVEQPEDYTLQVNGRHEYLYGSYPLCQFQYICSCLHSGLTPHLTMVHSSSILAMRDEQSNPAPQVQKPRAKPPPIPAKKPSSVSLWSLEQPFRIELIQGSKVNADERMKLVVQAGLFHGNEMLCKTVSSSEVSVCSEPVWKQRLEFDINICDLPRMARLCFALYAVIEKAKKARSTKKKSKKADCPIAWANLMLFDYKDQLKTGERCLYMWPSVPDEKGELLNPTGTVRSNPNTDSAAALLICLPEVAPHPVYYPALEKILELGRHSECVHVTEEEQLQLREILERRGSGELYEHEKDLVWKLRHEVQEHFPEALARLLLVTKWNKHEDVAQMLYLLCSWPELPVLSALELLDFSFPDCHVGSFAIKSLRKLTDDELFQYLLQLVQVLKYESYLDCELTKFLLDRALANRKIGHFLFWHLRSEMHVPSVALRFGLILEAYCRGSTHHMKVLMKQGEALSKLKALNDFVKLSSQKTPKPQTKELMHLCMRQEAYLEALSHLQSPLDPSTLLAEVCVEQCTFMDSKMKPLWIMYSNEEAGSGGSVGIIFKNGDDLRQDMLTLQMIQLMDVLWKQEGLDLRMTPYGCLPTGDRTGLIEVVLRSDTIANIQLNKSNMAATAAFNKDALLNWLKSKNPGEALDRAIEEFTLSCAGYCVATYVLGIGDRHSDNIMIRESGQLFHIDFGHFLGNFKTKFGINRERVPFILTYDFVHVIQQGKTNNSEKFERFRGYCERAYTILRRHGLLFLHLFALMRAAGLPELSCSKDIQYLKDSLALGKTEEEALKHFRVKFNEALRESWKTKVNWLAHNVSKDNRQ
T2 sequence (P27986 whole entry partner, species assumed): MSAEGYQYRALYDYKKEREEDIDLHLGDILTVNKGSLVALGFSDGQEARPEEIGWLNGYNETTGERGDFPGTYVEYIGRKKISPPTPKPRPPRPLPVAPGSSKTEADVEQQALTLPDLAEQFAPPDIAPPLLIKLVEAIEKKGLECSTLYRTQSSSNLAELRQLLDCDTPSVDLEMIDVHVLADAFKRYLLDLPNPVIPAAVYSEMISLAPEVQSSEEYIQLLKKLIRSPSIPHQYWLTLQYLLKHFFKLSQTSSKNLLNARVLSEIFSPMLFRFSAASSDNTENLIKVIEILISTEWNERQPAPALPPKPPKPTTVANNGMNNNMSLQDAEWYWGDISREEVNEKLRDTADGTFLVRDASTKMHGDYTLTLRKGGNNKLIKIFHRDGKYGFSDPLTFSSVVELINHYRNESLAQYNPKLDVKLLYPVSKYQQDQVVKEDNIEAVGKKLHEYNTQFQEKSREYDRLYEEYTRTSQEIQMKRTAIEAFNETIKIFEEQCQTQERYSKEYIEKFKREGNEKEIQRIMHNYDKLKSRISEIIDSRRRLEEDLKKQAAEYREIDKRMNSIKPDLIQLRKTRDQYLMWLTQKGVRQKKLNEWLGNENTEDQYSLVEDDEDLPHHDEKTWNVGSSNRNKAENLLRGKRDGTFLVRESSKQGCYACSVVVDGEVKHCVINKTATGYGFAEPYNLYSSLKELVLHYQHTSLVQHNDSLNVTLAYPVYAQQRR
In words: Luciferase-based luminescence assay (KinaseGlo), PI3K delta enzymatic activity. Particulars: for IC50: inhibition of enzymatic activity, KinaseGlo, 25 μM ATP, read-out: IC50 p110δ; for α/δ ratio: ratio of enzymatic IC50 against PI3Kα over IC50 against PI3Kδ; for β/δ ratio / γ/δ ratio: ratio of enzymatic IC50 values, Table 1. It counts as biochemical. The procedure, abridged: as §1
(Kinase-Glo reads ATP consumption through a luciferase reaction.)

Assay [3] concerns the target T3, PI3Kδ (Homo sapiens, UniProt O00329).
T3 construct: endogenous in cells; host or cells: Raji (ATCC #CCL-86)
In words: ELISA assay for PI3Kδ: sandwich ELISA, phosphorylation of AKT (Thr308) in Raji cells. Format: cell-based. The following applies: for IC50: cellular, pAKT (Thr308), Raji cells, anti-Human IgM stimulation, read-out: IC50 p110δ; for α/δ ratio / γ/δ ratio / β/δ ratio: ratio of cellular IC50 values, Table 2. How it is done:
Cellular PI3Kδ activity was determined by measuring the phosphorylation of AKT (Thr308) using a sandwich enzyme-linked immunosorbant assay (ELISA). Raji (Burkitt's Lymphoma) cells were obtained from ATCC (ATCC #CCL-86). Phosphate buffer saline (PBS) contained 2.7 M NaCl, 54 mM KCl, 86 mM […] (dibasic, anhydrous), and 28 mM […] (monobasic, anhydrous) at pH 7.2. Wash buffer contained PBS supplemented with 0.05% Tween-20. Blocking buffer contained wash buffer supplemented with 1% BSA. A 10× stimulation mixture contained 5 μg/mL anti-Human IgM antibody (Sigma #12386) diluted in serum-free RPMI medium (CellGro #CV-10-040-CV). Compounds for testing were dissolved and serially diluted in 100% DMSO (total of 10 concentrations), and then diluted in serum-free RPMI to 5×final assay concentration.
Raji cells were subcultured in RPMI medium supplemented with 10% fetal bovine serum, 100 IU/mL penicillin, 100 μg/mL streptomycin, and 1×MEM non-essential amino acids. Sandwich ELISA plates were prepared by coating 96-well assay plates (Pierce #15042) with 100 μL/well capture antibody (Cell Signaling Technology #7142 or 7144) diluted in PBS. Plates were incubated overnight at 4° C., then washed with wash buffer, after which 200 μL/well blocking buffer was added to the plates and incubated at room temperature for at least 2 hrs. Raji cells were resuspended in serum-free RPMI medium and seeded into V-bottom, 2-mL 96-well blocks (Corning #3961) at 10^6 cells/well, then incubated for 2 hrs in a 37° C., 5% CO2 incubator. Compound treatment was performed by adding the 5× compound mixture to the cells and incubating for 2 hrs at 37° C., 5% CO2, after which the 10× stimulation mixture was added to the plates and incubated for 30 min at 37° C., 5% CO2. Cells were pelleted by centrifuging plates at 1500 RPM for 5 min at room temperature. Media was carefully removed and cells were lysed by adding 100 μL/well cell lysis buffer (Cell Signaling Technology #9803) supplemented with protease and phosphatase inhibitors (Thermo Fisher #78443). Plates were incubated on ice for 30 min, then the lysates (80 μL for pAKT^T308, 10 μL for total AKT) were transferred to prepared assay plates and incubated at 4° C. overnight. After washing plates with wash buffer, 100 μL/well detection antibody (Cell Signaling Technology #7142 or 7144) diluted in blocking buffer was added to the plates and incubated for 1 hr at 37° C. Plates were washed and 100 μL/well of HRP-conjugated secondary antibody (Cell Signaling Technology #7142 or 7144) diluted in blocking buffer was added to plates and incubated for 1 hr at room temperature. Plates were washed with wash buffer and 100 μL/well of luminescent substrate was added to plates. After 1 min on a plate shaker at medium speed, luminescence was read on a Wallac Victor2 plate reader. IC50 values were determined by curve fitting using a Collaborative Drug Discovery database (www.collaborativedrug.com).

In assay [4] the target is mTOR (Homo sapiens, UniProt P42345). In words: mTOR inhibition (Table 1). The following applies: Table 1, no method described. It counts as biochemical.

T1 sequence (P42336 whole entry, species assumed): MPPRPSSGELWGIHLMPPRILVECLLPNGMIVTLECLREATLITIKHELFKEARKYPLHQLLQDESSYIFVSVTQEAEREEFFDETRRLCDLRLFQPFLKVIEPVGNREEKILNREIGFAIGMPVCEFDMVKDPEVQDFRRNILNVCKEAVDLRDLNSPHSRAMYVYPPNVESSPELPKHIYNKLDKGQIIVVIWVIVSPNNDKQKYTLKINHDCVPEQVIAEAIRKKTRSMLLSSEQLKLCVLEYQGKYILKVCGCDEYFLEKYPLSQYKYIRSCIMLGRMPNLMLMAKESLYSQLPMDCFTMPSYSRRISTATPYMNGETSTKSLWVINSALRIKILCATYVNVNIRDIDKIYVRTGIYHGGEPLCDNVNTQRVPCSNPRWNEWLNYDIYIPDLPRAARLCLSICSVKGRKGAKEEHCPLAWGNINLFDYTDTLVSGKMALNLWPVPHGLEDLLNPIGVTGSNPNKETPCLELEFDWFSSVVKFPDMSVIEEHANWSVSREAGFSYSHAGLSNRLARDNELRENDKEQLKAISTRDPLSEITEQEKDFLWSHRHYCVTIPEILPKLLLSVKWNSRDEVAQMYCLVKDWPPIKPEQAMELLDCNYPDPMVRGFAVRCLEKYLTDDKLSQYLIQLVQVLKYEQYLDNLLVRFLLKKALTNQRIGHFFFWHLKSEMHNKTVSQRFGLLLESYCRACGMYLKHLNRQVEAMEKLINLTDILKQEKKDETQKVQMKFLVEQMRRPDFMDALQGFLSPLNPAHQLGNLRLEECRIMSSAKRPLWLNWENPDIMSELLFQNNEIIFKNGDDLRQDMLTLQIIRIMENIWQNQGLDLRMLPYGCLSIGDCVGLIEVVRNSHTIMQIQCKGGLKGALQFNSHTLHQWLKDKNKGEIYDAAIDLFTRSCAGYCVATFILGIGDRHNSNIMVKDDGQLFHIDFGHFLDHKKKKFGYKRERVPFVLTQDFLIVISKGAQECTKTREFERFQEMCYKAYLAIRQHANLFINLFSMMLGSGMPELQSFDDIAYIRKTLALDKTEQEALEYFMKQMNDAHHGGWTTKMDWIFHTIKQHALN
T1 sequence (P27986 whole entry partner, species assumed): as the sequence (P27986 whole entry partner, species assumed) above
T3 sequence (O00329 whole entry): as the sequence (O00329 whole entry, species assumed) above
T3 sequence (P27986 whole entry partner): as the sequence (P27986 whole entry partner, species assumed) above

A word on the IC50: it is the midpoint of a concentration-inhibition curve. Turning to `CC(C)(Cc1cccc(F)c1)Nc1nc(N2CCOCC2)nc(-n2c(C(F)F)nc3ccccc32)n1` [Compound A39, 4-(2-(difluoromethyl)-1H-benzo[d]imidazol-1-yl)-N-(1-(3-fluorophenyl)-2-methylpropan-2-yl)-6-morpholino-1,3,5-triazin-2-amine], the half-maximal inhibitory concentration (IC50) in assay [1] is over 500 nM. In assay [2], the IC50 was at most 100 nM, the α/δ ratio result was “A’”, the β/δ ratio result was “D’” and the γ/δ ratio entry was “B’”. Besides, in assay [3], the IC50 is at most 100 nM, the α/δ ratio entry is “A’” and the γ/δ ratio entry was “A’”. The IC50 in assay [4] is over 500 nM.
For `CC(C)(Cc1ccccc1-c1cccnc1)Nc1nc(N2CCOCC2)nc(-n2c(C(F)F)nc3ccccc32)n1` [Compound A40, 4-(2-(difluoromethyl)-1H-benzo[d]imidazol-1-yl)-N-(2-methyl-1-(2-(pyridin-3-yl)phenyl)propan-2-yl)-6-morpholino-1,3,5-triazin-2-amine], the half-maximal inhibitory concentration (IC50) in assay [1] is 200 to 500 nM. In assay [2], the IC50 is at most 100 nM, the α/δ ratio result is listed as “A’”, the β/δ ratio entry is given as “D’” and the γ/δ ratio result is “A’”. Moreover, in assay [3], the IC50 was at most 100 nM, the α/δ ratio result was “A’”, the β/δ ratio result is “A’” and the γ/δ ratio result is “A’”. Besides, the half-inhibitory concentration (IC50) in assay [4] was over 500 nM.
Regarding `COc1cc(-c2ccccc2CC(C)(C)Nc2nc(N3CCOCC3)nc(-n3c(C(F)F)nc4ccccc43)n2)ccn1` [Compound A41, 4-(2-(difluoromethyl)-1H-benzo[d]imidazol-1-yl)-N-(1-(2-(2-methoxypyridin-4-yl)phenyl)-2-methylpropan-2-yl)-6-morpholino-1,3,5-triazin-2-amine], in assay [1], the half-maximal inhibitory concentration (IC50) is over 500 nM. Also, in assay [2], the half-maximal inhibitory concentration (IC50) is at most 100 nM, the α/δ ratio entry is reported as “A’”, the β/δ ratio result is on record as “A’” and the γ/δ ratio entry is “A’”. In assay [3], the IC50 was at most 100 nM, the α/δ ratio entry is given as “A’”, the β/δ ratio entry was “A’” and the γ/δ ratio entry is on record as “A’”. The half-maximal inhibitory concentration (IC50) in assay [4] was over 500 nM.
As for `Cc1cc(-c2ccccc2CC(C)(C)Nc2nc(N3CCOCC3)nc(-n3c(C(F)F)nc4ccccc43)n2)ccn1` [Compound A43, 4-(2-(difluoromethyl)-1H-benzo[d]imidazol-1-yl)-N-(2-methyl-1-(2-(2-methylpyridin-4-yl)phenyl)propan-2-yl)-6-morpholino-1,3,5-triazin-2-amine], the half-inhibitory concentration (IC50) in assay [1] was in the range of 200 to 500 nM. In assay [2], the half-maximal inhibitory concentration (IC50) was at most 100 nM, the α/δ ratio entry is “A’”, the β/δ ratio result was “D’” and the γ/δ ratio result is listed as “A’”. In assay [3], the IC50 is at most 100 nM, the α/δ ratio result is listed as “A’”, the β/δ ratio entry is given as “A’” and the γ/δ ratio result is reported as “A’”. Moreover, in assay [4], the IC50 is over 500 nM.
Regarding `CC(C)(Cc1ccccc1-c1cn[nH]c1)Nc1nc(N2CCOCC2)nc(-n2c(C(F)F)nc3ccccc32)n1` [Compound A44, 4-(2-(difluoromethyl)-1H-benzo[d]imidazol-1-yl)-N-(1-(2-(1H-pyrazol-4-yl)phenyl)-2-methylpropan-2-yl)-6-morpholino-1,3,5-triazin-2-amine], in assay [1], the IC50 fell in the range of 200 to 500 nM. Also, in assay [2], the concentration for half-maximal inhibition (IC50) is at most 100 nM, the α/δ ratio entry was “A’”, the β/δ ratio entry is reported as “D’” and the γ/δ ratio result is recorded as “A’”. For the same compound, in assay [3], the IC50 is at most 100 nM, the α/δ ratio entry is “A’”, the β/δ ratio entry is “A’” and the γ/δ ratio result is “A’”. In addition, the half-inhibitory concentration (IC50) in assay [4] was over 500 nM.
Turning to `Cn1cc(-c2ccccc2CC(C)(C)Nc2nc(N3CCOCC3)nc(-n3c(C(F)F)nc4ccccc43)n2)cn1` [Compound A45, 4-(2-(difluoromethyl)-1H-benzo[d]imidazol-1-yl)-N-(2-methyl-1-(2-(1-methyl-1H-pyrazol-4-yl)phenyl)propan-2-yl)-6-morpholino-1,3,5-triazin-2-amine], the IC50 in assay [1] was 100 to 200 nM; in assay [2], at most 100 nM; in assay [3], at most 100 nM; in assay [4], over 500 nM. For the same compound, the α/δ ratio entry in assay [2] and in assay [3] was “A’” in each case. The β/δ ratio result in assay [2] is “D’”; in assay [3], “B’”. The γ/δ ratio result in assay [2] and in assay [3] was “A’” in each case.
Consider `Cn1nccc1-c1ccccc1CC(C)(C)Nc1nc(N2CCOCC2)nc(-n2c(C(F)F)nc3ccccc32)n1` [Compound A46, 4-(2-(difluoromethyl)-1H-benzo[d]imidazol-1-yl)-N-(2-methyl-1-(2-(1-methyl-1H-pyrazol-5-yl)phenyl)propan-2-yl)-6-morpholino-1,3,5-triazin-2-amine], for which the half-maximal inhibitory concentration (IC50) in assay [1] lay within 200 to 500 nM. Also, in assay [2], the IC50 is at most 100 nM, the α/δ ratio entry was “A’”, the β/δ ratio entry is reported as “D’” and the γ/δ ratio result is on record as “A’”. In addition, in assay [3], the IC50 is at most 100 nM, the α/δ ratio entry is reported as “A’”, the β/δ ratio result is “B’” and the γ/δ ratio entry was “A’”. In assay [4], this compound returned a half-inhibitory concentration (IC50) of over 500 nM.
Take `Cc1cccc(CC(C)(C)Nc2nc(N3CCOCC3)nc(-n3c(C(F)F)nc4ccccc43)n2)c1` [Compound A49, 4-(2-(difluoromethyl)-1H-benzo[d]imidazol-1-yl)-N-(2-methyl-1-m-tolylpropan-2-yl)-6-morpholino-1,3,5-triazin-2-amine]: the concentration for half-maximal inhibition (IC50) in assay [1] is over 500 nM. Besides, in assay [2], the 50% inhibitory concentration (IC50) is at most 100 nM, the α/δ ratio entry is on record as “A’”, the β/δ ratio result is listed as “D’” and the γ/δ ratio entry is given as “C’”. Besides, in assay [3], the IC50 is at most 100 nM, the α/δ ratio result was “A’”, the β/δ ratio entry is reported as “B’” and the γ/δ ratio result is given as “A’”. In assay [4], this compound displayed a 50% inhibitory concentration (IC50) of over 500 nM.
For `COc1cc(CC(C)(C)Nc2nc(N3CCOCC3)nc(-n3c(C(F)F)nc4ccccc43)n2)ccc1F` [Compound A50, 4-(2-(difluoromethyl)-1H-benzo[d]imidazol-1-yl)-N-(1-(4-fluoro-3-methoxyphenyl)-2-methylpropan-2-yl)-6-morpholino-1,3,5-triazin-2-amine], the IC50 is over 500 nM in assay [1], at most 100 nM in assay [2], at most 100 nM in assay [3] and over 500 nM in assay [4]. The α/δ ratio result in assay [2] and in assay [3] was “A’” throughout. Further, the β/δ ratio entry was “C’” in assay [2] and “A’” in assay [3]. The γ/δ ratio result in assay [2] and in assay [3] was “A’” in each case.
Consider `CC(C)(Cc1ccc(F)cc1F)Nc1nc(N2CCOCC2)nc(-n2c(C(F)F)nc3ccccc32)n1` [Compound A51, 4-(2-(difluoromethyl)-1H-benzo[d]imidazol-1-yl)-N-(1-(2,4-difluorophenyl)-2-methylpropan-2-yl)-6-morpholino-1,3,5-triazin-2-amine], for which the half-maximal inhibitory concentration (IC50) was over 500 nM in assay [1], at most 100 nM in assay [2], at most 100 nM in assay [3] and over 500 nM in assay [4]. For the same compound, the α/δ ratio entry in assay [2] and in assay [3] was “A’” in each case. Moreover, the values for the β/δ ratio result in assay [2] and in assay [3] were “B’” and “D’”, respectively. Besides, the γ/δ ratio entry is given as “C’” in assay [2] and “A’” in assay [3].
